Among the data in ChEMBL document CHEMBL4325871 (Eur J Med Chem, 2019) are inhibition and Activity values, retold here.

Activity calls are given as the source filed them. The rule behind the calls is not given here.

The target of assay [1] is T1, Serine/threonine-protein kinase Chk1 (Homo sapiens) (UniProt O14757).
T1 sequence (whole entry): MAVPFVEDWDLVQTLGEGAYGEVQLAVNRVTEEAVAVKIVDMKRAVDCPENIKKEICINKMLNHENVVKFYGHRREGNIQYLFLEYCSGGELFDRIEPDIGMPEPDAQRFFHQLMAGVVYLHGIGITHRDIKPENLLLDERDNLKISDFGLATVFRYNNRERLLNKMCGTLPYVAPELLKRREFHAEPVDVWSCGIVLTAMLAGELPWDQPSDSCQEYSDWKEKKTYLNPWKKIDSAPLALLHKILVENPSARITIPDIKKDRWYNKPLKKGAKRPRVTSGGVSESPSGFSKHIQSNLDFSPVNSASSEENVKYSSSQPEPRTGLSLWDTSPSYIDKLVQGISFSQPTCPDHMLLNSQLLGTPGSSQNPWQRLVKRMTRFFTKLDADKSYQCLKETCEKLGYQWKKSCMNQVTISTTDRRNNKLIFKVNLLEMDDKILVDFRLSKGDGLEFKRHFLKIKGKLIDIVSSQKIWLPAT
Briefly: Inhibition of CHK1 phosphorylation at S317 residue in human HCT116 cells at 20 uM after 8 hrs by Western blot analysis. The class given is cell-based.

Assay [2] addresses Casein kinase I isoform epsilon (Homo sapiens) (UniProt P49674). Description: Inhibition of human CK1E assessed as residual activity at 1 uM using KRRRAL[pS]VASLPGL as substrate by [gamma-33P]-ATP assay relative to control.
In assay [3] the target is Tyrosine-protein kinase ITK/TSK (Homo sapiens) (UniProt Q08881). Description: Inhibition of human ITK assessed as residual activity at 1 uM using MBP as substrate by [gamma-33P]-ATP assay relative to control.
Assay [4] has as its target Mitogen-activated protein kinase kinase kinase 10 (Homo sapiens) (UniProt Q02779). Briefly: Inhibition of human MLK2 assessed as residual activity at 1 uM using MBP as substrate by [gamma-33P]-ATP assay relative to control.
Assay [5] concerns the target T1, Serine/threonine-protein kinase Chk1 (Homo sapiens). Description: Inhibition of hydroxyurea-induced CHK1 phosphorylation at S296 residue in human HCT116 cells at 20 uM treated for 8 hrs starting from 24 hrs post hydroxyurea addition by Western blot analysis. The class given is cell-based.
Assay [6] deals with Serine/threonine-protein kinase Nek11 (Homo sapiens) (UniProt Q8NG66). Briefly: Inhibition of human NEK11 assessed as residual activity at 1 uM using MBP as substrate by [gamma-33P]-ATP assay relative to control.
Assay [7] concerns the target Serine/threonine-protein kinase 24 (Homo sapiens) (UniProt Q9Y6E0). Briefly: Inhibition of human MST3 assessed as residual activity at 1 uM using MBP as substrate by [gamma-33P]-ATP assay relative to control.
Assay [8] addresses Protein kinase C gamma type (Homo sapiens) (UniProt P05129). Description: Inhibition of human PKCgamma assessed as residual activity at 1 uM using ERMRPRKRQGSVRRRV as substrate by [gamma-33P]-ATP assay relative to control.
In assay [9] the target is Mitogen-activated protein kinase 15 (Homo sapiens) (UniProt Q8TD08). Description: Inhibition of human ERK7 assessed as residual activity at 1 uM using MBP as substrate by [gamma-33P]-ATP assay relative to control.
Assay [10] concerns the target Tyrosine-protein kinase TXK (Homo sapiens) (UniProt P42681). Description: Inhibition of human TXK assessed as residual activity at 1 uM using EAIYAAPFAKKK as substrate by [gamma-33P]-ATP assay relative to control.
Assay [11] deals with Serine/threonine-protein kinase/endoribonuclease IRE2 (Homo sapiens) (UniProt Q76MJ5). Description: Inhibition of human ERN2 assessed as residual activity at 1 uM using MBP as substrate by [gamma-33P]-ATP assay relative to control.
Assay [12] has as its target Serine/threonine-protein kinase pim-3 (Homo sapiens) (UniProt Q86V86). Briefly: Inhibition of human PIM3 assessed as residual activity at 1 uM using RSRHSSYPAGT as substrate by [gamma-33P]-ATP assay relative to control.
Assay [13] deals with Serine/threonine-protein kinase N2 (Homo sapiens) (UniProt Q16513). Description: Inhibition of human PKN2 assessed as residual activity at 1 uM using KKLNRTLSVA as substrate by [gamma-33P]-ATP assay relative to control.
Assay [14] has as its target T1, Serine/threonine-protein kinase Chk1 (Homo sapiens). Briefly: Inhibition of CHK1 phosphorylation at S296 residue in human HCT116 cells at 20 uM after 8 hrs by Western blot analysis. The class given is cell-based.
For assay [15] the target is unchanged. Briefly: Inhibition of CHK1 phosphorylation at S345 residue in human HCT116 cells at 20 uM after 8 hrs by Western blot analysis. The class given is cell-based.
Assay [16] addresses Myosin light chain kinase, smooth muscle (Homo sapiens) (UniProt Q15746). Description: Inhibition of human MLCK assessed as residual activity at 1 uM using KKLNRTLSFAEPG as substrate by [gamma-33P]-ATP assay relative to control.
Assay [17] addresses Serine/threonine-protein kinase PLK2 (Homo sapiens) (UniProt Q9NYY3). Briefly: Inhibition of human PLK2 assessed as residual activity at 1 uM using casein as substrate by [gamma-33P]-ATP assay relative to control.
The target of assay [18] is Serine/threonine-protein kinase ICK (Homo sapiens) (UniProt Q9UPZ9). Description: Inhibition of human LCK2 assessed as residual activity at 1 uM using MBP as substrate by [gamma-33P]-ATP assay relative to control.
Assay [19] concerns the target CDK2/Cyclin A2 (Homo sapiens) (UniProt P24941+P20248). Briefly: Inhibition of human CDK2/cyclin-A assessed as residual activity at 1 uM using histone H1 as substrate by [gamma-33P]-ATP assay relative to control. The class given is protein-complex assay.
Assay [20] has as its target Serine/threonine-protein kinase D3 (Homo sapiens) (UniProt O94806). Briefly: Inhibition of human PKCnu assessed as residual activity at 1 uM using KKLNRTLSVA as substrate by [gamma-33P]-ATP assay relative to control.
The target of assay [21] is Casein kinase I isoform gamma-1 (Homo sapiens) (UniProt Q9HCP0). Briefly: Inhibition of human CK1gamma1 assessed as residual activity at 1 uM using KRRRAL[pS]VASLPGL as substrate by [gamma-33P]-ATP assay relative to control.
Assay [22] has as its target Myosin-IIIb (Homo sapiens) (UniProt Q8WXR4). Description: Inhibition of human MYO3B assessed as residual activity at 1 uM using MBP as substrate by [gamma-33P]-ATP assay relative to control.
In assay [23] the target is Cyclin-dependent kinase 1/cyclin B1 (Homo sapiens) (UniProt P06493+P14635). Briefly: Inhibition of human CDK1/cyclinB assessed as residual activity at 1 uM using Histone H1 as substrate by [gamma-33P]-ATP assay relative to control. The class given is protein-complex assay.
The target of assay [24] is CDK1/Cyclin E (Homo sapiens) (UniProt P06493+P24864). Description: Inhibition of human CDK1/cyclinE assessed as residual activity at 1 uM using RB protein as substrate by [gamma-33P]-ATP assay relative to control. The class given is protein-complex assay.
For assay [25], the target named is Inactive tyrosine-protein kinase PEAK1 (Homo sapiens) (UniProt Q9H792). Briefly: Inhibition of human PEAK1 assessed as residual activity at 1 uM using MBP as substrate by [gamma-33P]-ATP assay relative to control.

Chain of Myosin-IIIb (Homo sapiens) (Q8WXR4 whole entry): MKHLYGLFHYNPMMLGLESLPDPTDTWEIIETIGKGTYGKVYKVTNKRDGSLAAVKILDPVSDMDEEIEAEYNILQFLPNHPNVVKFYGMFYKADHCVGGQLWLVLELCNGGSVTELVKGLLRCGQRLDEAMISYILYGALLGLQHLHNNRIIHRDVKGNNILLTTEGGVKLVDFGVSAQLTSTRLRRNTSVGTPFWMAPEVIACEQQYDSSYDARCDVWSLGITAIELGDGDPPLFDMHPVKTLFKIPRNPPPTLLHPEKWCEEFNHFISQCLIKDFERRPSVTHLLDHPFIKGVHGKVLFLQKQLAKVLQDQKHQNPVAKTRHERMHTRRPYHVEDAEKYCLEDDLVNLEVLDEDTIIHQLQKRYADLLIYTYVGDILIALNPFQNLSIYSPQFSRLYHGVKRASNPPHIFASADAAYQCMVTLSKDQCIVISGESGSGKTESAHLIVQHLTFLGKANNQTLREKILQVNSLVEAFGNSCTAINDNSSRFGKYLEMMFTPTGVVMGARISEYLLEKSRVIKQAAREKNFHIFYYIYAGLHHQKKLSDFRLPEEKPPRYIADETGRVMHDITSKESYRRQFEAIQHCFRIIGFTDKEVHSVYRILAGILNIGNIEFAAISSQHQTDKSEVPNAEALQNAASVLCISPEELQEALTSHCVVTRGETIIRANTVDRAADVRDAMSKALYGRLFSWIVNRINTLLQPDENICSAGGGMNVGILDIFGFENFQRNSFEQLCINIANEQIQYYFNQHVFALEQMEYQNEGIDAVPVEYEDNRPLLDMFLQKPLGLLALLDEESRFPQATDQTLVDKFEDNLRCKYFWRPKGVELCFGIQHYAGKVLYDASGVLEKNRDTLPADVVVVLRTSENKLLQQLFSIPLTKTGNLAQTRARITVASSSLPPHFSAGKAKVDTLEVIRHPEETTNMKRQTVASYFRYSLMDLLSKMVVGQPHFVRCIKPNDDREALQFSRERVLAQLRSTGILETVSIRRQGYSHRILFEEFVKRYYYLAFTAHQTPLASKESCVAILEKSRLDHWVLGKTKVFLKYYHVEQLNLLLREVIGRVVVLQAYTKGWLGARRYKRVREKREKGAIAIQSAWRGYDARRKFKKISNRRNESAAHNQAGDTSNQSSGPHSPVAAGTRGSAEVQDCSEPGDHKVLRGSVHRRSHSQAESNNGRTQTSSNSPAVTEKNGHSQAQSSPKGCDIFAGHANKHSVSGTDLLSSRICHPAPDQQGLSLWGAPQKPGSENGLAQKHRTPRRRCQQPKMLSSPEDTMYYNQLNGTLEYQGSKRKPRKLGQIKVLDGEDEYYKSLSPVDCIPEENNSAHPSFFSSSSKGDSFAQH
Chain of Myosin light chain kinase, smooth muscle (Homo sapiens) (Q15746 whole entry): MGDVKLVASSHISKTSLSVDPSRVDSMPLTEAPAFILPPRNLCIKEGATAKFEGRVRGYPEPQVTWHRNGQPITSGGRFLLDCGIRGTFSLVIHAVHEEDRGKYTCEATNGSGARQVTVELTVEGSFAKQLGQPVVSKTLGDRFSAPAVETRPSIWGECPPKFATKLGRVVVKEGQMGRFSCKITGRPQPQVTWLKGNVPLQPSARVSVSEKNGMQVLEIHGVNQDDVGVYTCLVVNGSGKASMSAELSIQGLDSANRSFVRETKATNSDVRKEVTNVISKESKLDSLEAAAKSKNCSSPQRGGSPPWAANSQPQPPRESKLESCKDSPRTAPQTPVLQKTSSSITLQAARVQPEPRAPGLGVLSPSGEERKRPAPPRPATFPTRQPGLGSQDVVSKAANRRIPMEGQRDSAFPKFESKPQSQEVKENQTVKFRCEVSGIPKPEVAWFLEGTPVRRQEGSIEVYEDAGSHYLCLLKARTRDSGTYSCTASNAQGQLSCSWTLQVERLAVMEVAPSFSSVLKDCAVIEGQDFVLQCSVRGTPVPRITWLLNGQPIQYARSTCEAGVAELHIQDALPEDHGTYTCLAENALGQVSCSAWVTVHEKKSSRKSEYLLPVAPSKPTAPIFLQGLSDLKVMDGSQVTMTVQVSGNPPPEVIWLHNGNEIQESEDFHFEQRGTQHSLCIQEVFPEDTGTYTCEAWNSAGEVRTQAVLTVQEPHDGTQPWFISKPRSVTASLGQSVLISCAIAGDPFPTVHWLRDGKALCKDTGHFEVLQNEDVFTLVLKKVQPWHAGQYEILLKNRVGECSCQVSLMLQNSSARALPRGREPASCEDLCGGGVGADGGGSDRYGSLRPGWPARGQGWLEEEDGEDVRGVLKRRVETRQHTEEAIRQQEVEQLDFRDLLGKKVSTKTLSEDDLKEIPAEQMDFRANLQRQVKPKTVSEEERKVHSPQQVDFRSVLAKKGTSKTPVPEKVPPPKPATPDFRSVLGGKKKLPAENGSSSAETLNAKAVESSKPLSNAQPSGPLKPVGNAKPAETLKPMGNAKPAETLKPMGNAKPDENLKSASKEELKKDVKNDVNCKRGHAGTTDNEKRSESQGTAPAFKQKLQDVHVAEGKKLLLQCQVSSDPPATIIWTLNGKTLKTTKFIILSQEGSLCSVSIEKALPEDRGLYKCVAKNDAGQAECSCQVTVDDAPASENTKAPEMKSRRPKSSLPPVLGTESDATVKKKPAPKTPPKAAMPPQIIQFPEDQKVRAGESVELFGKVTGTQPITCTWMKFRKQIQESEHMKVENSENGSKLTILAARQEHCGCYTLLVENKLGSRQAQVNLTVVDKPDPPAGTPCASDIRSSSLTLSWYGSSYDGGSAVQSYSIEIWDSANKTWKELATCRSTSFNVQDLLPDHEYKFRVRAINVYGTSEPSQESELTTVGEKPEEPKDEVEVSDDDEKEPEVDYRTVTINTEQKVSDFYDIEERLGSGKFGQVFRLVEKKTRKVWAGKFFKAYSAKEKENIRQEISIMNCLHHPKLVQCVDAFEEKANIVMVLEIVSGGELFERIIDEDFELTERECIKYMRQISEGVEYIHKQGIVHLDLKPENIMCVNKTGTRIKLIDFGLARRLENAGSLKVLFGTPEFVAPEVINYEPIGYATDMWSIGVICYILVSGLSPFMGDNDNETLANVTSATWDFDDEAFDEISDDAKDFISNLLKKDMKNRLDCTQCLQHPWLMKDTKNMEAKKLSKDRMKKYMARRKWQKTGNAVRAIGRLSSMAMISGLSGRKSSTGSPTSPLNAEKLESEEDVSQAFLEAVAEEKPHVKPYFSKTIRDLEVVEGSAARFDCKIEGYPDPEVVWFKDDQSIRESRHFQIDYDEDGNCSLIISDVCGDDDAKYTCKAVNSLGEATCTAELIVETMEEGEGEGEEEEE
Chain of Serine/threonine-protein kinase Nek11 (Homo sapiens) (Q8NG66 whole entry): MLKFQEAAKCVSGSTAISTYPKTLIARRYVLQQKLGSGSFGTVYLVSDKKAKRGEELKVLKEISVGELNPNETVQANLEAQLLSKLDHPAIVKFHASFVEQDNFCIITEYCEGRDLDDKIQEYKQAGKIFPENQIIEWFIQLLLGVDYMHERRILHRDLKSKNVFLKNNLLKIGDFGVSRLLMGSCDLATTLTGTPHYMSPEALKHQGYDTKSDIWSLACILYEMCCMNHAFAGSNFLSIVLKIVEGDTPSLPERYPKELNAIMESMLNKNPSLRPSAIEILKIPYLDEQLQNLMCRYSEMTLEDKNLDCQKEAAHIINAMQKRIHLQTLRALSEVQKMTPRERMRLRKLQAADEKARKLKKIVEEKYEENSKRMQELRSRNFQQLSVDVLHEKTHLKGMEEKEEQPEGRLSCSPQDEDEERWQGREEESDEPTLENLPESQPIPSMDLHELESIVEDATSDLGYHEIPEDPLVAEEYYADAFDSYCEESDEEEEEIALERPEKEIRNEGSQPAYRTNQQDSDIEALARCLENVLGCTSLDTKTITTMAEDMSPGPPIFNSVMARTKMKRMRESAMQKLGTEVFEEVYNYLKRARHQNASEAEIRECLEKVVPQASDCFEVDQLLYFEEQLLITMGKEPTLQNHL
Chain of Tyrosine-protein kinase TXK (Homo sapiens) (P42681 whole entry): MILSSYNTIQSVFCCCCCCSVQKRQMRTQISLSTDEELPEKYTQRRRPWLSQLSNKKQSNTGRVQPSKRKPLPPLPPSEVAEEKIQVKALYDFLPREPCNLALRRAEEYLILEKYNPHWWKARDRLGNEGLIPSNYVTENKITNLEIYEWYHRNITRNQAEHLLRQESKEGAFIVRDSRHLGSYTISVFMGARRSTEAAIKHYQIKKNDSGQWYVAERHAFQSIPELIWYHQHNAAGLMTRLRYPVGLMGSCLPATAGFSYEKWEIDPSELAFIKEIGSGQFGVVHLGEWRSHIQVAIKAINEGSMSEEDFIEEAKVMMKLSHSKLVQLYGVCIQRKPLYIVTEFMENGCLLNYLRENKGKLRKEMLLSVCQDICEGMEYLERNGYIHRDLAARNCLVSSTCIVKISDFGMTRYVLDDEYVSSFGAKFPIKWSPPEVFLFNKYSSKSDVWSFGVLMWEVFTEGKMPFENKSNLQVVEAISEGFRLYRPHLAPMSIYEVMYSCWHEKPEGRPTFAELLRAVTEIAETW

Consider `C(=C\c1ccccc1)/C[N+]12CN3CN(CN(C3)C1)C2`, for which the inhibition entry in assay [1], in [14] and in [15] was “inactive” throughout. The Activity in assay [2] is 90.1 to 93.2%; in [3], 91.3 to 92.2%; in [4], 96 to 96.1%; in [6], 95 to 96.2%; in [7], 107 to 112%; in assay [8], 94.5 to 96.3%. Also, the Activity lay within 95 to 96.7% in [9]; 93.5 to 93.8% in assay [10]; 94.5 to 96.6% in [11]; 104 to 107% in assay [12]; 95.9 to 108% in assay [13]. For the same compound, in assay [5], the inhibition entry is “Active”.
Consider `ClC/C=C/C[N+]12CN3CN(CN(C3)C1)C2`, for which the Activity in assay [16] is 90.5 to 94.9%; in [17], 96.6 to 96.8%; in assay [18] it was 85.1 to 89.7%; in assay [19] it was 97.3 to 97.8%; in [20], 93.2 to 96.7%; in assay [21], 94.4 to 96.5%. The Activity lay in the range of 84.1 to 87.7% in assay [22], 94.3 to 96.5% in [23], 98.8 to 100% in assay [24] and 94.2 to 94.3% in [25].
